We go through 14 compounds from PubChem BioAssay (NCI).

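1) Cells in 96-well plates. 2) Compound, 48 h, 5 concentrations. 3) Linear interpolation between surrounding doses. 4) Unreached endpoint = highest concentration. Here, GI50 denotes the concentration required for 50% inhibition of growth. TGI: concentration producing complete growth inhibition.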

Holding throughout (assay): growth of human tumour cells (NCI), 48 h
In assay [1] the test system is HCT-116 colon.
Assay [2] relates to CCRF-CEM leukemia.
In assay [3] the test system is SNB-75 CNS.
For assay [4], the system named is SN12C renal.
The subject of assay [5] is HCT-15 colon.
Assay [6] relates to M14 melanoma.
Assay [7] concerns OVCAR-5 ovarian.
Assay [8] concerns NCI-H460 lung.
Assay [9] concerns OVCAR-8 ovarian.
For assay [10], the system named is MALME-3M melanoma.

With `CC1CCC(C#N)(NOC2=NCCN2)CC1` (stereo not drawn), the GI50 in [1] is 63.8 µM; in [2], 56 µM; in [3], > 100 µM; in assay [4], 36.2 µM; in assay [5] it was 27.8 µM; in assay [6], 46.4 µM. Besides, the results for the GI50 in [7], in [8] and in assay [9] were > 100 µM, 37.7 µM and 29.2 µM, respectively. Further, the TGI in [1], in assay [2], in assay [3], in assay [4], in [5] and in assay [6] was > 100 µM each time. Also, the TGI in assay [7], in assay [8] and in [9] was > 100 µM in each case.
With `COc1cc(C(=C2SCCS2)c2nccc3cc(OC)c(OC)cc23)c([N+](=O)[O-])cc1OC`, the TGI in assay [1], in [2], in [3], in assay [4], in assay [6] and in assay [7] was > 100 µM each time. The TGI in assay [10] and in assay [9] was > 100 µM in each case.
Regarding `CC(=O)C1C(=O)C(=O)N(c2ccc([N+](=O)[O-])cc2Cl)C1=O` (stereo not drawn), the TGI in [1], in [2], in assay [3], in [4], in assay [5] and in assay [6] was > 100 µM each time. The TGI in assay [7], in assay [8] and in assay [9] was > 100 µM each time.
With `CC(=O)Oc1cc(OC(C)=O)c2cc3c(cc2c1OC(C)=O)C(=O)C1(CCCC1)C3=O`, the TGI is 30 µM in assay [3]; 31.6 µM in assay [4]; 39.3 µM in assay [5]; 32.1 µM in assay [6]; 33.1 µM in assay [8]; 33.6 µM in [10]. Besides, the TGI in assay [9] was determined as 31.6 µM.
Turning to `O=C(Cc1nc2ccccc2s1)C(=O)Nc1ccc(Cl)cc1Cl`, the TGI in assay [1], in assay [3], in assay [4], in assay [5], in [6] and in [7] was > 100 µM throughout. In addition, the TGI in assay [8], in assay [10] and in assay [9] was > 100 µM in each case.
With `COc1cc(CCC(=O)NS(=O)(=O)c2ccccc2)cc(OC)c1OC`, the TGI in assay [1], in assay [2], in assay [3], in assay [4], in assay [6] and in [7] was > 100 µM each time. In addition, the TGI in [8], in assay [10] and in assay [9] was > 100 µM in each case.
On to `CCCCCCCCCCCCCCCCCCOCC1(COP(=O)([O-])OCC[N+](C)(C)C)CCCO1` (stereo not drawn), for which the TGI in assay [1] was found to be 22 µM; in [2], 11.6 µM; in assay [3] it was 18.3 µM; in assay [4], 5.81 µM; in assay [6], 8.59 µM; in assay [7] it was 25.1 µM. Also, the TGI is 3.23 µM in assay [8], 26.2 µM in [10] and 26.5 µM in [9].
`CCCCCC/C=C\CCCCCCCCCc1c(O)c(OC)cc(O)c1CN(C)C`: the TGI was 22 µM in assay [1]; 2.87 µM in assay [2]; 13.8 µM in assay [3]; 20.7 µM in assay [4]; 10.8 µM in assay [5]; 27.8 µM in assay [6]. The TGI in assay [7] came to 29.6 µM; in [8] it was 15.2 µM; in assay [9], 23.8 µM.
As for `C=C(CN(CCN1CCOCC1)CC(=C)c1ccc(C(=O)Nc2ccccc2N)cc1)c1ccc(C(=O)Nc2ccccc2N)cc1`, the GI50 was 7.68 µM in assay [1]; 7.43 µM in assay [4]; 10.5 µM in [5]; 15.8 µM in assay [6]; 7.62 µM in assay [7]; 8.72 µM in assay [8]. In addition, the GI50 in assay [9] was 1.79 µM. The TGI in assay [1] is 15.3 µM; in assay [4] it was 21.2 µM; in assay [5], 43.9 µM; in [6] it was > 50 µM; in [7], 15.2 µM; in assay [8] it was > 50 µM. This compound also had a TGI in assay [9] of 29.5 µM.
For `Cc1ccc(C(=O)NC(C)C)cc1N=NN(C)C`, the TGI in [1], in assay [4], in assay [5], in [6], in assay [8] and in assay [9] was > 100 µM each time.
In the case of `C[C@@]1(CBr)C[C@@](C)(/C=C/Cl)[C@@H](Cl)C[C@H]1Cl`, the TGI in assay [1] is 21.2 µM; in assay [2], 19.8 µM; in assay [3], 30.5 µM; in assay [4], 24.4 µM; in [6], 29 µM; in [7], 26.3 µM. Moreover, the values for the TGI in [10] and in assay [9] were 30.4 µM and 29.9 µM, respectively.
With `O=C(O)C1=C(Cl)c2ccccc2S1(=O)=O`, the TGI in assay [2], in assay [3], in assay [4], in assay [5], in [6] and in assay [7] was > 100 µM throughout. Besides, the TGI in assay [8], in assay [10] and in assay [9] was > 100 µM each time.
Regarding `COC(=O)c1cccc2c1Oc1ccccc1S2`, the TGI in assay [1] was > 100 µM; in [2] it was 56.9 µM; in [3], 71.1 µM; in [4] it was > 100 µM; in [5], > 100 µM; in assay [6], > 100 µM. Also, the TGI in assay [7], in [8] and in assay [9] was > 100 µM throughout.
On to `NC(N)=N/N=C(/c1ccccc1)c1ccc(O)cc1O`, for which the TGI was > 100 µM in [1]; > 100 µM in [3]; 91 µM in assay [4]; > 100 µM in [5]; 58.7 µM in assay [6]; > 100 µM in assay [7]. Moreover, the TGI in assay [8] was 88.4 µM; in assay [10] it was > 100 µM; in assay [9], 59.2 µM.
